Read-outs that look alike come from different tables or passages of the source.
Experiments:
Swiss-Webster male mice [1] = experiment: Mouse Activity and Screen Test (MAST): inhibition of spontaneous locomotion (LI); type: in vivo; details: for Inhibition of mouse locomotor activity: one hour prior to testing, vs vehicle
male Swiss-Webster mice = experiment: Analgesic evaluation: antiwrithing (AW) test, acetic acid; type: in vivo; details: Mus musculus, sc, read-out: AW ED50
Experimental: The antiwrithing (AW) test provides preliminary assessment of compounds with potential analgesic activity. The test is performed in male Swiss-Webster mice. Compounds are administered subcutaneously in aqueous 0.2% methylcellulose or other appropriate vehicles in volumes of 10 ml/kg. Dosages represent activity moiety.
Acetic acid (0.6%, 10 ml/kg) is injected intraperitroneally 20 minutes after administration of the adenosine agonist. Writhing movements are counted for five minutes starting seven minutes after the acetic acid injection. Writhing is defined as abdominal constriction and stretching of the body and hind legs with concave arching of the back. […] EDso values are calculated by nonlinear regression analysis.

[2] = test system: Long-Evans rats or squirrel-monkeys; experiment: Antipsychotic lever-push shock avoidance protocol (SIDR); type: in vivo; details: Rattus norvegicus, read-out: SIDR ED50
Experimental: Representative compounds of the invention (identified in the Examples) were also tested for antipsychotic activity according to the following protocol (SIDR). […] Mature male Long-Evans rats or squirrel-monkeys are conditioned to push a lever in order to avoid a painful electric footshock. If the animal fails to push the lever, he receives a shock every ten seconds until the lever is pushed. Shocks can be terminated by pushing the lever. Thereafter, as long as the lever is pushed at least once every 20 seconds, there will be no shock. Each animal acts as its own control; one weekly session is used to establish baseline behavior and another session later in the week is used as a drug session. Once patterns of avoidance are established, the effects of standard and unknown compounds are studied. All events are electronically programmed and the response to these events counted or used as feedback to the program.

Swiss-Webster male mice [3] = experiment: Mouse Activity and Screen Test (MAST): screen test (ST); type: in vivo; details: lowest dose at which an A rating (60-100%) is achieved, screen test; intraperitoneally
Experimental: Treatments are administered intraperitoneally one hour prior to testing. […] Compounds are dissolved or suspended in 0.2% Methocel. Control animals are injected with Methocel.
The compounds are identified in the Examples.

rat heart = experiment: Coronary blood flow (PCS2A): isolated perfused heart; details: Rattus norvegicus

SMILES: OC[C@H]1O[C@@H](n2cnc3c(NCC(c4ccccc4)c4ccccc4)ncnc32)[C@H](O)[C@@H]1O [Example 1, N^6-(2,2-Diphenylethyl)adenosine]
- Inhibition of mouse locomotor activity (Swiss-Webster male mice [1]; 10 mg/kg intraperitoneally): 92%
- Inhibition of mouse locomotor activity (Swiss-Webster male mice [1]; 30 mg/kg intraperitoneally): 93%
- Inhibition of mouse locomotor activity (Swiss-Webster male mice [1]; 100 mg/kg intraperitoneally): 94%
- minimal effective dose (Swiss-Webster male mice [1]; Mus musculus, ip, read-out: MAST LI LAD): 3 mg/kg
- ED50 (male Swiss-Webster mice): 6.9 mg/kg
- ED50 [2]: 2.5 mg/kg
- MAST ST LAD (Swiss-Webster male mice [3]): >100 mg/kg
- activation at 0.001 µM (rat heart; read-out: CF): 7%
- activation at 0.003 µM (rat heart; read-out: CF): 15%
- activation at 0.01 µM (rat heart; read-out: CF): 32%
- activation at 0.1 µM (rat heart; read-out: CF): 43%
- activation at 1 µM (rat heart; read-out: CF): 50%
- EC50 (rat heart; read-out: PCS2A CF ED50): 1000 nM
- EC50 (rat heart; read-out: PCS2A HR ED50): 2000 nM
